Laboratory results taken from patent US10555915B2, “Methods for treating acute acoustic trauma” (Hough Ear Institute, priority 2009, dated 2020).

How the values were obtained:
AAT-induced hearing loss [1] = test: Chinchilla AAT model, oral treatment, ABR threshold shift; assay type: in vivo, chinchilla laniger
Experimental: The treatments were administered a total of five times including one dose 4 hours post-AAT, and two doses daily on days 1 and 2 post AAT.
Hearing was assessed as auditory brainstem response (ABR) which was measured at between 1 and 3 days prior to AAT and at one or more of the following time points post AAT: 1 hr, 8 hr, 24 hr 7 day and 21 days. The 21 day test point was considered the permanent threshold shift (PTS). ABR recordings were performed under light ketamine (20 mg/kg) and xylazine (1 mg/kg) anesthesia. Small supplemental doses (⅓ of initial dose) were given if needed. ABR thresholds were recorded from subcutaneous needle electrodes placed under the skin of the head. […] Auditory stimuli was generated using a computer-aided system (Intelligent Hearing Systems, Miami, Fla.) coupled to high frequency transducers. Acoustic stimuli were tone pips (5 ms duration and 1 ms Blackman rise and fall) at frequencies of 0.5, 1, 2, 4, 6, 8, and 16 kHz. All acoustic stimuli were transduced through the computer-controlled attenuator to a 3A insert earphone [Etyniotic Research (ER)-3A, Etymotic Research Inc., Elk Grove Village, Ill.] placed about 5 mm from the tympanic membrane. The insert earphone was calibrated with a coupler mounted to the sound level meter approximating its placement. The electrical responses obtained from the electrodes were amplified (×100,000), filtered (100-3,000 Hz), and digitized through an A/D converter on a signal processing board. They were averaged at a sample rate of 1024 for each level.
Hearing thresholds were tested in 10 dB descending steps until near the threshold, and then 5 dB ascending steps were taken to determine the threshold. Threshold was defined as the midpoint between the lowest level of a clear response and the next level where no response was observed. The threshold shift refers to the difference in threshold prior to and following AAT. The investigators performing the ABR measurements were blinded as to the identity of the animal groups.
Statistically significant differences in threshold shifts were tested via ANOVA (SPSS 14.0 for Windows).

AAT-induced hearing loss [2] = test: Chinchilla AAT model, NAC intraperitoneal, ABR threshold shift; assay type: in vivo; conditions: FIG. 3; for threshold shift at 21 days following AAT exposure: p<0.05
Experimental: For the experiments and examples described herein, the following methods were generally employed except for those described with respect to FIG. 5. Female adult chinchilla laniger (Mouton Chinchilla Ranch, Rochester, Minn.) weighing 500-850 grams were placed, two at a time, in two small wire restraint cages on a wooden plate where the AAT was induced by a 105 dB SPL octave-band noise centered at 4 kHz for 6 hours in a sound isolation booth [Industrial Acoustics Company (IAC), New York, N.Y.]. The noise was digitally generated by a Tucker Davis Technologies (TDT, Alachua, Fla.) device and passed through a real time attenuator (TDT, RP2), filtered, amplified with a preamplifier (QSC audio power, Costa Mesa, Calif.), and transduced with a high frequency acoustic driver and an acoustic speaker (JBL 2350, Northridge, Calif.) suspended from the ceiling of the sound booth which is placed directly above the wire cages. Before noise exposure, the sound spectrum output of the system was calibrated with a sound level meter centered at an octave bandwidth of 4 kHz. A condenser microphone (B&K 2804, Norcross, Ga.) coupled to the preamplifier was placed between the two wire cages at the level of the animals' heads to monitor the noise level. During noise exposure, the noise level was continually and visually monitored using the PULSE software system [B&K Sound & Vibration Measurement (version 10.0), Norcross, Ga.] including FFT Analysis Type 7770 and CPB Analysis 7771. […]
Hearing was assessed as auditory brainstem response (ABR) which was measured at between 1 and 3 days prior to AAT and at one or more of the following time points post AAT: 1 hr, 8 hr, 24 hr 7 day and 21 days. […] ABR thresholds were recorded from subcutaneous needle electrodes placed under the skin of the head. […]

| Structure (SMILES) | average threshold shift at each individual frequency (0.5, 1, 2, 4, 6 and 8 kHz) (AAT-induced hearing loss [1]; 300 mg/kg oral, compared to control, FIG. 2) | average threshold shift across all frequencies tested (AAT-induced hearing loss [1]; 21 days post AAT, 300 mg/kg oral, five doses from 4 hours post-AAT, compared to control animals, FIG. 1) | average threshold shift for each individual frequency tested (AAT-induced hearing loss [1]; 21 days post AAT, oral, 300 mg/kg HPN-07 alone or + 300 mg/kg NAC, vs control (10% sucrose), FIG. 4A) | combined average threshold shift from 2 kHz to 8 kHz (AAT-induced hearing loss [1]; 21 days post AAT, oral, vs control, FIG. 4B) | outer hair cell loss (AAT-induced hearing loss [1]; expected in view of ABR data, compared to the control group) | protection from hearing loss due to AAT (AAT-induced hearing loss [1]; oral administration to chinchillas exposed to AAT, summary statement) | threshold shift at 21 days following AAT exposure (AAT-induced hearing loss [2]; 100 mg/kg NAC i.p.) | threshold shift at 21 days following AAT exposure (AAT-induced hearing loss [2]; 200 mg/kg NAC i.p.) | threshold shift soon after treatment (AAT-induced hearing loss [2]; NAC i.p. 4 hours post AAT) |
| --- | --- | --- | --- | --- | --- | --- | --- | --- | --- |
| CC(C)(C)[N+]([O-])=Cc1ccc(S(=O)(=O)O)cc1S(=O)(=O)O [HPN-07, 2,4-disulfonyl α-phenyl tertiary butyl nitrone] | most pronounced effect of HPN-07 occurred at 0.5, 1, 6 and 8 kHz, while the effect was less prominent at 2 and 4 kHz | significantly decreased average threshold shift | significant reduction in threshold shift at 0.5, 1, 4 and 6 kHz | overall significant reduction in threshold shift | statistically significant reduction in outer hair cell loss | significantly protected them from hearing loss |  |  |  |
| CC(=O)N[C@@H](CS)C(=O)O [NAC, N-acetylcysteine] |  |  |  |  |  |  | significant decrease in threshold shift | significant decrease in threshold shift | mild effect on threshold shift |
